How the values were obtained:
Cytochrome P450 2C9 [1] = target: T1, Cytochrome P450 2C9 (Homo sapiens, UniProt P11712); assay: (§1) Inhibition of recombinant human CYP2C9; format: ADME
Dipeptidyl peptidase 9 = Dipeptidyl peptidase 9 (Homo sapiens, UniProt Q86TI2); assay: Inhibition of human recombinant DPP9 incubated for 15 mins using Gly-Pro-7-AMC substrate
[2] = Oral bioavailability in ICR mouse at 2 mg/kg measured after 0.0833 to 120 hrs by LC-MS-MS analysis; format: ADME, organism-based; conditions: in vivo
Rhesus monkey = assay: Ex-vivo inhibition of DPP4 in plasma isolated from rhesus monkey treated at 10 mg/kg, ig after 2 weeks by fluorescence based assay relative to control; format: functional; conditions: Macaca mulatta, po, 336 h
Mus musculus [3] = assay: Antidiabetic activity in ob/ob mouse assessed as reduction in decrease in HbA1c level at 3 mg/kg, po dosed once every three days for 31 day relative to control; format: functional; design: scale not given: the % may be the effect or the level left
CYP2C19 = CYP2C19 (Homo sapiens, UniProt P33261); assay: Stability assessed as recombinant human CYP2C19 mediated compound metabolism by measuring parent compound remaining after 30 mins relative to control; format: ADME; conditions: read-out: Stability
[4] = Clearance in ICR mouse at 0.5 mg/kg, iv measured after 0.0833 to 120 hrs by LC-MS-MS analysis; format: ADME, organism-based; conditions: in vivo
Cytochrome P450 3A4 [5] = target: T2, Cytochrome P450 3A4 (Homo sapiens, UniProt P08684); assay: Inhibition of recombinant human CYP3A4 using midazolam as substrate; format: ADME
Cytochrome P450 2A6 = target: T3, Cytochrome P450 2A6 (Homo sapiens, UniProt P11509); assay: Inhibition of recombinant human CYP2A6; format: ADME
T3 sequence (P11509 whole entry): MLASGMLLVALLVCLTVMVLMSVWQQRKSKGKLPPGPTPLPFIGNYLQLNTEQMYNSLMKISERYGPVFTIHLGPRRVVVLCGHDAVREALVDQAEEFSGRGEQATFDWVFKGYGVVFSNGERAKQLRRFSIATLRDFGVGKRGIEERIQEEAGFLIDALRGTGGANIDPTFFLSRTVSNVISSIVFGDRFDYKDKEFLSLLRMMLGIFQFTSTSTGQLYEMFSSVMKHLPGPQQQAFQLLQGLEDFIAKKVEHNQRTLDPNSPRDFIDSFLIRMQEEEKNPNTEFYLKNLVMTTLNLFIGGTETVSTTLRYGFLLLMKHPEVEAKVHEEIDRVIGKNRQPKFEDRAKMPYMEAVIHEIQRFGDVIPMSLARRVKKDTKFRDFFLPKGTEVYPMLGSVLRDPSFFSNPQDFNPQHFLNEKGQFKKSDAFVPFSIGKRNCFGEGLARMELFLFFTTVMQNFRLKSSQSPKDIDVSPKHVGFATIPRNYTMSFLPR

Cytochrome P450 2C9 [6] = target: T1, Cytochrome P450 2C9; assay: as §1; format: ADME; remark: listed apart in the source
Cytochrome P450 3A4 [7] = target: T2, Cytochrome P450 3A4; assay: Inhibition of recombinant human CYP3A4 using testosterone as substrate; format: ADME
CYP2B6 = CYP2B6 (Homo sapiens, UniProt P20813); assay: Stability assessed as recombinant human CYP2B6 mediated compound metabolism by measuring parent compound remaining after 30 mins relative to control; format: ADME; conditions: read-out: Stability
Cytochrome P450 2C8 = target: T4, Cytochrome P450 2C8 (Homo sapiens, UniProt P10632); assay: Inhibition of recombinant human CYP2C8; format: ADME
T4 sequence (P10632 whole entry): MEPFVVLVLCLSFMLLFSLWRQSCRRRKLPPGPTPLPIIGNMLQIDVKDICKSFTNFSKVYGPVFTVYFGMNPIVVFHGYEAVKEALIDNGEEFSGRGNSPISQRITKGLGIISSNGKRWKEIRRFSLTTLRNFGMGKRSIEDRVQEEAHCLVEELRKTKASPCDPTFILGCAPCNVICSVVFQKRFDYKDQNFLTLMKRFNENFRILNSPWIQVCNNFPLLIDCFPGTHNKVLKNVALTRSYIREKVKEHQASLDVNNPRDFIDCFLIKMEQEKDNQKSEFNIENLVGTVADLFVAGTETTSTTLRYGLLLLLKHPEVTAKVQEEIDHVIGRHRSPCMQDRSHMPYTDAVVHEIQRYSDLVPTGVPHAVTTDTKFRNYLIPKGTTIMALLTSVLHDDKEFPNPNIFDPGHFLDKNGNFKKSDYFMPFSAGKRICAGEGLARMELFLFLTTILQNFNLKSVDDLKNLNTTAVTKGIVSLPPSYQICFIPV

Cytochrome P450 3A5 = Cytochrome P450 3A5 (Homo sapiens, UniProt P20815); assay: Inhibition of recombinant human CYP3A5 using testosterone as substrate; format: ADME
CYP2C9 = CYP2C9 (Homo sapiens, UniProt P11712); assay: Stability assessed as recombinant human CYP2C9 mediated compound metabolism by measuring parent compound remaining after 30 mins relative to control; format: ADME; conditions: read-out: Stability
Mus musculus [8] = assay: Antidiabetic activity in ob/ob mouse assessed as reduction in decrease in HbA1c level at 1 mg/kg, po dosed once every three days for 31 day relative to control; format: functional; design: scale not given: the % may be the effect or the level left
Cytochrome P450 1A2 = target: T5, Cytochrome P450 1A2 (Homo sapiens, UniProt P05177); assay: Inhibition of recombinant human CYP1A2; format: ADME
T5 sequence (P05177 whole entry): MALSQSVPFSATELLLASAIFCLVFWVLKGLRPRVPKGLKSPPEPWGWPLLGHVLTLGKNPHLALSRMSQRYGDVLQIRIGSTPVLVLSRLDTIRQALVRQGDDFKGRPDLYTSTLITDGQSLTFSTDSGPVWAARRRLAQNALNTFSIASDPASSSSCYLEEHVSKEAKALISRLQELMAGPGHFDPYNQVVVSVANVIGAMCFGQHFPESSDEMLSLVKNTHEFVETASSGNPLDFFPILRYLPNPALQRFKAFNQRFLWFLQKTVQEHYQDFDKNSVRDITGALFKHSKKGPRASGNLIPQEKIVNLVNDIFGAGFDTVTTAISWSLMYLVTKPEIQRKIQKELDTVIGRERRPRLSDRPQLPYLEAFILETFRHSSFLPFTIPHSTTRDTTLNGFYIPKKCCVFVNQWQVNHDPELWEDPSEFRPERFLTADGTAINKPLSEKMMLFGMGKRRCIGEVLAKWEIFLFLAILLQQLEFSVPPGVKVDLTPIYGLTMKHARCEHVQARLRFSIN

Cytochrome P450 2C19 = Cytochrome P450 2C19 (Homo sapiens, UniProt P33261); assay: Inhibition of recombinant human CYP2C19; format: ADME
[9] = AUC in T2D patient; format: ADME; conditions: human, in vivo
[10] = Toxicity in female Sprague-Dawley rat during 3-month repeated dose toxicology study; conditions: in vivo
[11] = Toxicity in Sprague-Dawley rat during single oral dose toxicology study; conditions: in vivo

T1 sequence (P11712 whole entry): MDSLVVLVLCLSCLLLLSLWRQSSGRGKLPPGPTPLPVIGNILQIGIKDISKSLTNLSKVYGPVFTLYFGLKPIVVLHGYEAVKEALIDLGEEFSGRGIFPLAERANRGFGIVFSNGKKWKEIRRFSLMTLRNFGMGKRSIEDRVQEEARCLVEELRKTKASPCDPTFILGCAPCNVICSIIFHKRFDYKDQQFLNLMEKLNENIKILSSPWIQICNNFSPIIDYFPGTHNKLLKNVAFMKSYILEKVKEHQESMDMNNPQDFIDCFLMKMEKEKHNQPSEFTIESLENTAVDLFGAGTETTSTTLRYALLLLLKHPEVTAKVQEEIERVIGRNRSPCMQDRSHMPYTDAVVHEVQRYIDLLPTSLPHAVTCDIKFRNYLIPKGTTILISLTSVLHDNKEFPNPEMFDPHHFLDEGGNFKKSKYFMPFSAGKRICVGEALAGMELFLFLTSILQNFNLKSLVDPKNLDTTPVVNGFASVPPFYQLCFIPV
T2 sequence (P08684 whole entry): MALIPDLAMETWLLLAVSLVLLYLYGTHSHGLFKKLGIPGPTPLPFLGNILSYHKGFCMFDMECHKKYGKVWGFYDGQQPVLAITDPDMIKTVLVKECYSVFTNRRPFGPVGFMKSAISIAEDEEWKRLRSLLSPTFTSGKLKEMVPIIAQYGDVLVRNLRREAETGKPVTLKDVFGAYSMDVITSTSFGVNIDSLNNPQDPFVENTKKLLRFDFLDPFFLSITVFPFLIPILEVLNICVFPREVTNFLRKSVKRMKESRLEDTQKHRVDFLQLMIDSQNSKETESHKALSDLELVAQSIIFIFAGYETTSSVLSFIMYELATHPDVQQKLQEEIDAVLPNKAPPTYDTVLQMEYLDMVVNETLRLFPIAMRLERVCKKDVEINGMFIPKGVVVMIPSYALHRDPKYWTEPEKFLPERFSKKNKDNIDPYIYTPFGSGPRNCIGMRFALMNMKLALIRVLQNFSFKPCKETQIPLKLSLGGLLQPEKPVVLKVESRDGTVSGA
Sequence of Dipeptidyl peptidase 9 (Q86TI2 whole entry): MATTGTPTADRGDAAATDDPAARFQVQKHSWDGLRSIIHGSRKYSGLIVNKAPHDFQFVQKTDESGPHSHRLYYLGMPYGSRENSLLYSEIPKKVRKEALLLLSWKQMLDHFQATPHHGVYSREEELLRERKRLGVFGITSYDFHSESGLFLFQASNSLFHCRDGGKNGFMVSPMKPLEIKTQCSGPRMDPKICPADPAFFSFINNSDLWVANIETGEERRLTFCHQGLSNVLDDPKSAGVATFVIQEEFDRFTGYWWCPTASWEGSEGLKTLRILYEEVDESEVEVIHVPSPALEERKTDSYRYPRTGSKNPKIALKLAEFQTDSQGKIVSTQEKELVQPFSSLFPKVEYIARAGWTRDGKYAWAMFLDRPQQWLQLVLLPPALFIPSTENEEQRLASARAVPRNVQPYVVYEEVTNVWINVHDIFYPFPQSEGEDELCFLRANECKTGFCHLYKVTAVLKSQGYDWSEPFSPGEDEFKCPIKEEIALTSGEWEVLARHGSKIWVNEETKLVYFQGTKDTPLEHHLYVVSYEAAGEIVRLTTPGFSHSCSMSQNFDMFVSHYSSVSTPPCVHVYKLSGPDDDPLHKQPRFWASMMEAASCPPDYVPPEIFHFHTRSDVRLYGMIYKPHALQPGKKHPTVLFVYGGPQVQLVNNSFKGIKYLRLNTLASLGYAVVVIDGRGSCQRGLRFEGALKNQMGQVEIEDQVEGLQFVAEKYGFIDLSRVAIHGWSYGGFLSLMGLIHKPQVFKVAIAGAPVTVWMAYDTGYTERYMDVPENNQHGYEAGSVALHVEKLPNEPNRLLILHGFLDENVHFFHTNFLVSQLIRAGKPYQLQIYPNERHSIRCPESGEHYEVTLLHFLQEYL
Sequence of CYP2B6 (P20813 whole entry): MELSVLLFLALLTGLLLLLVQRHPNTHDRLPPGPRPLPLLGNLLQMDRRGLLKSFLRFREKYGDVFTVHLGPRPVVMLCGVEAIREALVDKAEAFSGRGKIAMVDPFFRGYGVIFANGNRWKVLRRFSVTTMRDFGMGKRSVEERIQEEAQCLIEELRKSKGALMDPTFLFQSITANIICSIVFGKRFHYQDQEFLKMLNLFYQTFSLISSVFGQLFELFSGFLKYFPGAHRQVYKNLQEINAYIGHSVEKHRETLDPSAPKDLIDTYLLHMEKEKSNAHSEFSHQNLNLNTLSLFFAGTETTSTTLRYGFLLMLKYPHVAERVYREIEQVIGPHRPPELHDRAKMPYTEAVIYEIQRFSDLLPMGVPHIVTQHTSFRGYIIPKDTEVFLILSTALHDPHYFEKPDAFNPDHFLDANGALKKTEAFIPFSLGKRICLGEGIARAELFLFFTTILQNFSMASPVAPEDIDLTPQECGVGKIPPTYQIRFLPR
Sequence of CYP2C19 (P33261 whole entry): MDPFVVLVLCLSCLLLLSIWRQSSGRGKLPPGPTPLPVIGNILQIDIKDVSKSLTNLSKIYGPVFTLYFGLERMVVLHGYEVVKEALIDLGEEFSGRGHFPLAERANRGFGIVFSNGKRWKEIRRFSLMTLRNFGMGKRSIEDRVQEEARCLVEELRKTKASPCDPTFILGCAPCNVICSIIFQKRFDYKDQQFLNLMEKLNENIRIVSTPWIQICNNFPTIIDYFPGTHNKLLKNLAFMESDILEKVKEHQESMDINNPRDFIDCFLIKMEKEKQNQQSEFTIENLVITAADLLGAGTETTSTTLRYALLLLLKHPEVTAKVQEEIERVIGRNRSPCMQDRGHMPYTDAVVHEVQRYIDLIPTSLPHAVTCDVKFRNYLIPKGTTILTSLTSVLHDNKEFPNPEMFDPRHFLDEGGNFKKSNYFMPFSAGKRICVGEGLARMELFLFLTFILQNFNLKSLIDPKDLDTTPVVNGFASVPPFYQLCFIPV
Sequence of Cytochrome P450 2C19 (P33261 whole entry): as above
Sequence of Cytochrome P450 3A5 (P20815 whole entry): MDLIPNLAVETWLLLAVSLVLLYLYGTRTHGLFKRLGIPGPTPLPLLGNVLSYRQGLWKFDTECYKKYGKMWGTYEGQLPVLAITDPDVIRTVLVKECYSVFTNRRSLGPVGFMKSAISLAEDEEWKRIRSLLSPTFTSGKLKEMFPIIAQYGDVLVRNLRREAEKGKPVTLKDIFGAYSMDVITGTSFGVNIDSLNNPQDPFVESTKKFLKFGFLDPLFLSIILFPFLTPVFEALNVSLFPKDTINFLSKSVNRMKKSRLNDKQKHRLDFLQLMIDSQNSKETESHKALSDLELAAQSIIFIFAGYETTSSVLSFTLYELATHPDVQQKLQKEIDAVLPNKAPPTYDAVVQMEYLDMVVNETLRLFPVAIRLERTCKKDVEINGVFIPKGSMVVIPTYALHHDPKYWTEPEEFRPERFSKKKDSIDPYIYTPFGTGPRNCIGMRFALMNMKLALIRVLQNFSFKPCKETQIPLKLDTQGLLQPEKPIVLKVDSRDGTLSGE
Sequence of CYP2C9 (P11712 whole entry): as the sequence (P11712 whole entry) above

`CS(=O)(=O)n1cc2c(n1)CN([C@@H]1C[C@H](N)[C@@H](c3cc(F)ccc3F)O[C@@H]1C(F)(F)F)C2` [COFROGLIPTIN] gave an IC50 (Cytochrome P450 2C9 [1]) of over 100 µM, an IC50 (Dipeptidyl peptidase 9) of over 100 µM and a bioavailability [2] of 62.2%. The inhibition in vivo at 10 mg/kg (Rhesus monkey) was 76.2%, the Activity (Mus musculus [3]) was 19.1% and the remaining at 0.5 h (CYP2C19) was over 95%. The clearance [4] was 2.57 mL/min/kg, the IC50 (Cytochrome P450 3A4 [5]) was 45.8 µM and the IC50 (Cytochrome P450 2A6) was over 100 µM. For the same molecule, the IC50 (Cytochrome P450 2C9 [6]) was over 100 µM, the IC50 (Cytochrome P450 3A4 [7]) was over 100 µM and the remaining at 0.5 h (CYP2B6) was over 95%. For the same molecule, the IC50 (Cytochrome P450 2C8) was 76.3 µM, the IC50 (Cytochrome P450 3A5) was over 100 µM and the remaining at 0.5 h (CYP2C9) was over 95%. For the same molecule, the Activity (Mus musculus [8]) was 3.1%, the IC50 (Cytochrome P450 1A2) was over 100 µM and the IC50 (Cytochrome P450 2C19) was over 100 µM. The AUC [9] was 34900 ng·h/mL, the NOAEL at 3 month [10] was 100 mg/kg and the MTD [11] was 1000 mg/kg.
